Assay results reported in paper PMC8124228, “New Hybrids Based on Curcumin and Resveratrol: Synthesis, Cytotoxicity and Antiproliferative Activity against Colorectal Cancer Cells” (Molecules, 2021).
Where two headings read alike, the source gives them in different places.

Legend:
[1] = test system: SW480 human colon adenocarcinoma cells; assay: Sulforhodamine B (SRB) cytotoxicity assay, SW480; format: cell-based; details: for SI (selectivity index): IC50 CHO-K1 / IC50 SW480; for IC50: Homo sapiens, SRB, mean ± SE
Experimental: (§1) To determine the cytotoxic effect of the synthesized hybrids, they were evaluated against SW480 human colon adenocarcinoma cells, its metastatic derivative SW620 and the non-malignant CHO-K1 cell line, through the sulforhodamine B assay. In this experiment, 5-FU was also included as the reference drug, as well as the parental subunits (curcumin and resveratrol) and the equimolar mixture of these. Cytotoxicity was reported as 50% inhibitory concentration (IC50 values).
(§2) Biological assays were performed using an adenocarcinoma colon cancer cell line (SW480), its metastatic derivative (SW620) and non-malignant cells (CHO-K1). These were obtained from The European Collection of Authenticated Cell Cultures (ECACC, England) and maintained in Dulbecco’s Modified Eagle Medium, supplemented with 10% heat-inactivated (56 °C) horse serum, 1% penicillin/streptomycin and 1% non-essential amino acids (Gibco Invitrogen, Carlsbad, USA). For all experiments, horse serum was reduced to 3%, and the medium was supplemented with […], 5 ng/mL selenium and […] (ITS-defined medium; Gibco, Invitrogen, Carlsbad, CA, USA).
(§3) Cytotoxicity of the synthesized hybrids, lead and reference compounds was evaluated through Sulforhodamine B (SRB) assay, a colorimetric test that is based on staining of total cellular protein of adherent cells. Cells were seeded to a final density of 20,000 cells/well in 96-well tissue culture plates and incubated at 37 °C in a humidified atmosphere at 5% CO2. All cultures were allowed to grow for 24 h, and afterward they were treated with DMSO (vehicle control 1%) or increasing concentrations (0.01–200 µM) of the synthesized hybrids, as well as curcumin and resveratrol (lead compounds), the equimolar mixture of these and 5-fluorouracil (5-FU; the standard drug). After treatment, cells were fixed with trichloroacetic acid (50% v/v) (MERCK) for a period of 1 h at 4 °C. Cell proteins were determined by staining with 0.4% (w/v) SRB (Sigma-Aldrich, United States), and then they were washed with 1% acetic acid for the removal of unbound SRB and left for air-drying. Protein bound SRB was solubilized in 10 mM Tris-base and the absorbance was measured at 492 nm in a microplate reader (Mindray MR-96A). All experiments were performed at least in triplicate.

[2] = test system: SW620 cells (metastatic derivative of SW480); assay: Sulforhodamine B (SRB) cytotoxicity assay, SW620; format: cell-based, human; details: for SI (selectivity index): IC50 CHO-K1 / IC50 SW620; for IC50: Homo sapiens, SW-620, SRB, mean ± SE
Experimental: as §1, §2, §3

SW620 cell line = assay: Antiproliferative activity (SRB, 2-8 days), SW620; format: cell-based, human; details: for viability at 10 µM / viability at 160 µM: Homo sapiens, vehicle control = 100%, read-out: Viability (%) ± SE; for viability at 10 µM: SW620, 10 µM; for viability at 160 µM: SW620, 160 µM
Experimental: With the aim of testing the antiproliferative effect of the most cytotoxic and selective hybrids (3e and 3i for SW480 and 3a, 3e and 3k for SW620), they were analyzed through a longer period. According to the results in comparison with the control, it was observed that the activity was time- and concentration-dependent, as evidenced by the decrease in cell viability in the highest concentrations (Table 2). […] Similar results were presented in a previous investigation by Herrera-R et al. (2018), reporting the antiproliferative effect and morphological changes in SW480 cells after treatment with different hybrids using a stilbene moiety, which highlights the potential of this scaffold in the approach to design molecules with potential activity against CRC.
Briefly, cells were seeded to a final density of 2500 cells/well in 96-well tissue culture plates and incubated in the same conditions described for cytotoxicity. […] Culture media was replaced every 48 h. After each incubation time, cells were fixed, stained and read as previously described for this technique.

[3] = test system: non-malignant CHO-K1 cell line; assay: Sulforhodamine B (SRB) cytotoxicity assay, non-malignant cells; format: cell-based; details: Cricetulus griseus, mean ± SE
Experimental: as §1, §2, §3

| melting point | Structure (SMILES) | SI (selectivity index) ([1]; 24 h) | SI (selectivity index) ([1]; 48 h) | SI (selectivity index) ([2]; 24 h) | SI (selectivity index) ([2]; 48 h) | IC50 ([1]; SW480, 24 h, 24 h) | IC50 ([1]; SW480, 48 h, 48 h) | viability at 10 µM (SW620 cell line; SW-620, 48 h, day 2) | viability at 160 µM (SW620 cell line; SW-620, 48 h, day 2) | viability at 10 µM (SW620 cell line; SW-620, 96 h, day 4) | viability at 160 µM (SW620 cell line; SW-620, 96 h, day 4) | viability at 10 µM (SW620 cell line; SW-620, 144 h, day 6) | viability at 160 µM (SW620 cell line; SW-620, 144 h, day 6) | viability at 10 µM (SW620 cell line; SW-620, 192 h, day 8) | viability at 160 µM (SW620 cell line; SW-620, 192 h, day 8) | IC50 ([2]; 24 h) | IC50 ([2]; 48 h) | IC50 ([3]; 24 h) | IC50 ([3]; 48 h) | reduction in viability (SW620 cell line; SW620, after two days of treatment, concentrations higher than 10 µM) |
| --- | --- | --- | --- | --- | --- | --- | --- | --- | --- | --- | --- | --- | --- | --- | --- | --- | --- | --- | --- | --- |
| – | COc1cc(/C=C/C(=O)CC(=O)/C=C/c2ccc(O)c(OC)c2)ccc1O [Curcumin] | 0.24 | 0.40 | 0.12 | 1.63 | – | – | – | – | – | – | – | – | – | – | – | – | – | – | – |
| 119 to 120 °C | COc1cc(/C=C/C(=O)c2ccc(/C=C/c3ccc(O)cc3)cc2)ccc1O [Hybrid 3a, (E)-3-(4-Hydroxy-3-methoxyphenyl)-1-(4-((E)-4-hydroxystyryl)phenyl)prop-2-en-1-one] | 1.28 | 0.54 | 0.74 | – | 96 ± 2.76 µM | 95.1 ± 7.02 µM | 71.9 ± 1.9% | 16.1% | 10.7 ± 4.7% | 0% | 2.5 ± 0.5% | 0% | 0.2 ± 0.3% | 0% | 166 ± 11.8 µM | 20.2 ± 1.21 µM | 122 ± 15.5 µM | 51.6 ± 10.5 µM | – |
| 187 to 190 °C | COc1ccc(/C=C/c2ccc(C(=O)/C=C/c3ccc(O)c(OC)c3)cc2)cc1 [Hybrid 3b, (E)-3-(4-hydroxy-3-methoxyphenyl)-1-(4-((E)-4-methoxystyryl)phenyl)prop-2-en-1-one] | – | – | – | – | – | – | – | – | – | – | – | – | – | – | – | – | – | – | – |
| 227 to 230 °C | COc1cc(/C=C/C(=O)c2ccc(/C=C/c3ccc([N+](=O)[O-])cc3)cc2)ccc1O [Hybrid 3c, (E)-3-(4-hydroxy-3-methoxyphenyl)-1-(4-((E)-4-nitrostyryl)phenyl)prop-2-en-1-one] | >100 | >15 | – | – | 27.5 ± 2 µM | > 200 µM | – | – | – | – | – | – | – | – | > 3000 µM | > 3000 µM | > 3000 µM | > 3000 µM | – |
| 63 to 65 °C | COc1cc(/C=C/C(=O)c2ccc(/C=C/c3cccc(OC)c3OC)cc2)ccc1O [Hybrid 3d, (E)-1-(4-((E)-2,3-Dimethoxystyryl)phenyl)-3-(4-hydroxy-3-methoxyphenyl)prop-2-en-1-one] | 0.91 | 0.49 | 0.44 | 0.48 | 34.1 ± 3.92 µM | 25.2 ± 3.54 µM | – | – | – | – | – | – | – | – | 70.5 ± 3.8 µM | 26.1 ± 4.24 µM | 31 ± 2.93 µM | 12.4 ± 3.41 µM | – |
| 47 to 51 °C | COc1ccc(OC)c(/C=C/c2ccc(C(=O)/C=C/c3ccc(O)c(OC)c3)cc2)c1 [Hybrid 3f, (E)-1-(4-((E)-2,5-Dimethoxystyryl)phenyl)-3-(4-hydroxy-3-methoxyphenyl)prop-2-en-1-one] | 1.33 | 0.27 | 2.36 | 0.86 | 84.4 ± 5.45 µM | 88.6 ± 1.84 µM | – | – | – | – | – | – | – | – | 47.4 ± 10.5 µM | 27.6 ± 4.99 µM | 112 ± 15.8 µM | 23.9 ± 4.01 µM | – |
| 87 to 90 °C | COc1cc(/C=C/C(=O)c2ccc(/C=C/c3c(OC)cccc3OC)cc2)ccc1O [Hybrid 3g, (E)-1-(4-((E)-2,6-Dimethoxystyryl)phenyl)-3-(4-hydroxy-3-methoxyphenyl)prop-2-en-1-one] | 11.1 | 0.83 | 2.82 | 1.17 | 8.55 ± 2.47 µM | 39.1 ± 5.68 µM | – | – | – | – | – | – | – | – | 33.7 ± 4.2 µM | 27.6 ± 5.21 µM | 95 ± 1.67 µM | 32.4 ± 5.16 µM | – |
| 49 to 51 °C | COc1cc(/C=C/c2ccc(C(=O)/C=C/c3ccc(O)c(OC)c3)cc2)cc(OC)c1 [Hybrid 3h, (E)-1-(4-((E)-3,5-Dimethoxystyryl)phenyl)-3-(4-hydroxy-3-methoxyphenyl)prop-2-en-1-one] | 2.06 | 0.93 | 1.60 | 1.08 | 47.2 ± 8.39 µM | 24.9 ± 1.65 µM | – | – | – | – | – | – | – | – | 61 ± 12.8 µM | 21.4 ± 3.29 µM | 97.4 ± 2.62 µM | 23.2 ± 4.07 µM | – |
| 142 to 146 °C | COc1cc(/C=C/C(=O)c2ccc(/C=C/c3ccc(O)c(OC)c3)cc2)ccc1O [Hybrid 3j, (E)-3-(4-Hydroxy-3-methoxyphenyl)-1-(4-((E)-4-hydroxy-3-methoxystyryl)phenyl)prop-2-en-1-one] | 5.28 | 0.59 | 1.50 | 0.84 | 7.98 ± 1.53 µM | 41.1 ± 7.8 µM | – | – | – | – | – | – | – | – | 28.1 ± 4.27 µM | 28.8 ± 4.57 µM | 42.1 ± 4.85 µM | 24.3 ± 5.21 µM | – |
| 74 to 77 °C | COc1cc(/C=C/C(=O)c2ccc(/C=C/c3cc(OC)c(OC)c(OC)c3)cc2)ccc1O [Hybrid 3k, (E)-3-(4-Hydroxy-3-methoxyphenyl)-1-(4-((E)-3,4,5-trimethoxystyryl)phenyl)prop-2-en-1-one] | 0.84 | 0.34 | 3.65 | – | 88.5 ± 4.58 µM | 85.8 ± 1.27 µM | 56.1 ± 4% | 2.4 ± 0.7% | 12.1% | 0% | 1.9 ± 0.8% | 0% | 0.1 ± 0.1% | 0% | 20.4 ± 2.43 µM | 11.8 ± 1.2 µM | 74.6 ± 4.2 µM | 29.4 ± 2.29 µM | significant reduction in viability |
| 86 to 88 °C | COc1cc(/C=C/C(=O)c2ccc(/C=C/c3cc(OC)c(O)c(OC)c3)cc2)ccc1O [Hybrid 3l, (E)-1-(4-((E)-4-Hydroxy-3,5-dimethoxystyryl)phenyl)-3-(4-hydroxy-3-methoxyphenyl)prop-2-en-1-one] | 1.42 | 0.48 | 2.63 | 0.83 | 63.5 ± 8.16 µM | 51.8 ± 5.85 µM | – | – | – | – | – | – | – | – | 34.2 ± 5.09 µM | 29.8 ± 3.68 µM | 90 ± 8.55 µM | 24.8 ± 5.53 µM | – |
| – | O=c1[nH]cc(F)c(=O)[nH]1 [Hybrid 5-FU, 5-fluorouracil, reference compound] | 0.35 | 0.99 | 0.59 | 0.96 | – | – | – | – | – | – | – | – | – | – | – | – | – | – | – |
| – | Oc1ccc(/C=C/c2cc(O)cc(O)c2)cc1 [Resveratrol] | 0.77 | 0.52 | 0.22 | 0.45 | 154 ± 10.6 µM | 123 ± 4.48 µM | – | – | – | – | – | – | – | – | 549 ± 38.5 µM | 143 ± 4.03 µM | 118 ± 8.54 µM | 64 ± 8.92 µM | – |
